Assay [1] concerns U-251 CNS cancer cell line. The assay can be described thus: NCI in vitro screen, CNS cancer U-251. Format: cell-based. The note with it: Homo sapiens, read-out: Cytotoxicity log GI50 (converted).
Assay [2] deals with NCI-H460 non-small cell lung cancer cell line. The assay can be described thus: NCI in vitro screen, non-small cell lung cancer NCI-H460. Format: cell-based. The note with it: Homo sapiens, read-out: Cytotoxicity log GI50 (converted).
Assay [3] concerns NCI's 60 human tumor cell line. The assay can be described thus: NCI 60 human tumor cell line in vitro screen (average / whole panel). Type of assay: cell-based. The note with it: calculated from all cell lines tested, molar concentrations, read-out: average log GI50 (converted).
The subject of assay [4] is HCT-116 colon cancer cell line. Description: NCI in vitro screen, colon cancer HCT-116. Format: cell-based. The following applies: Homo sapiens; HCT-1.16 (head); HCT-116 (footnote); read-out: Cytotoxicity log GI50 (converted).
Assay [5] concerns MDA-N breast cancer cell line. The assay can be described thus: NCI in vitro screen, breast cancer MDA-N. Format: cell-based. The following applies: Homo sapiens, read-out: Cytotoxicity log GI50 (converted).
The test system of assay [6] is 786-0 renal cancer cell line. The assay can be described thus: NCI in vitro screen, renal cancer 786-0. Type of assay: cell-based. The following applies: Homo sapiens, read-out: Cytotoxicity log GI50 (converted).
The test system of assay [7] is MDA-MB-435 breast cancer cell line. Description: NCI in vitro screen, breast cancer MDA-MB-435. Type of assay: cell-based. The note with it: Homo sapiens, read-out: Cytotoxicity log GI50 (converted).
For assay [8], the system named is SK-MEL-5 melanoma cell line. The assay can be described thus: NCI in vitro screen, melanoma SK-MEL-5. Type of assay: cell-based. The note with it: Homo sapiens, read-out: Cytotoxicity log GI50 (converted).
Assay [9] deals with PC-3 prostate cancer cell line. The assay can be described thus: NCI in vitro screen, prostate cancer PC-3. Format: cell-based. The note with it: Homo sapiens, read-out: Cytotoxicity log GI50 (converted).
The test system of assay [10] is HL-60(TB) leukemia cell line. The assay can be described thus: cells. Type of assay: cell-based. The following applies: Homo sapiens; HL-60(TB); read-out: Cytotoxicity log GI50 (converted).
In assay [11] the test system is OVCAR-3 ovarian cancer cell line. The assay can be described thus: NCI in vitro screen, ovarian cancer OVCAR-3. Type of assay: cell-based. The note with it: Homo sapiens, read-out: Cytotoxicity log GI50 (converted).
For assay [12], the system named is SF-295 CNS cancer cell line. The assay can be described thus: NCI in vitro screen, CNS cancer SF-295. Format: cell-based. The following applies: Homo sapiens, read-out: Cytotoxicity log GI50 (converted).
In a further assay the test system is tubulin. The assay can be described thus: Tubulin polymerization assay. Type of assay: biochemical, bovine. Here is the method: Electrophoretically homogeneous bovine brain tubulin was purified as described in E. Hamel, et al. Biochemistry 23:4173 (1984).
The tubulin polymerization assay was performed as described in S. Kuo, et al. J. Med. Chem. 36:1146 (1993); L. Li, et al. J. Med. Chem. 37:1126 (1994); and L. Li J. Med. Chem. 37:3400 (1994). In brief, tubulin at 1.2 mg/ml (12 μM) was preincubated for 15 min at 26° C. in a 0.24-ml volume of 0.8 M monosodium glutamate (pH 6.6 with NaOH in a 2 M stock solution) with varying drug concentrations. The drug stock solutions were in DMSO, and the final solvent concentration was 4 % (v/v). All concentrations are in terms of the final reaction volume (0.25 ml). The reaction mixtures were chilled on ice, and 10 μl of 10 mM GTP was added to each reaction mixture. Samples were transferred to cuvettes held at 0° C. by an electronic temperature controller in Gilford spectrophotometers. Baselines were established at 350 nm, and polymerization initiated by a temperature jump to 26° C. The jump took about 50 sec to complete. After 20 min, turbidity readings were recorded, and the temperature controller was set to 0C. When depolymerization was complete, turbidity readings were again recorded. […] IC50 values were obtained graphically from inhibition of polymerization by different drug concentrations.
Electrophoretically, homogeneous bovine brain tubulin was purified as described in Example 6.
The tubulin polymerization assay was performed as described in Example 6.

[13] abbreviates: Tables 1 and 4, read-out: ITP HC50 ± SD (Inhibition of Tubulin Polymerization).
[14] abbreviates: read-out: IC50, inhibition of tubulin polymerization.

Molecules are shown by their SMILES. Like-named read-outs stand apart in the source and are kept apart here.

In general, GI50 refers to the concentration that inhibits growth by half. `Cc1cc(C)c2c(=O)cc(-c3ccc4ccccc4c3)[nH]c2n1` [Compound 51, 2-(β-Naphthyl)-5,7-methyl-1,8-naphthyridin-4-one]: the 50% growth inhibitory concentration (GI50) in assay [1] is 15.8 µM; in assay [2] it was 13.2 µM; in assay [3], 13.5 µM; in assay [4] it was 12.6 µM; in [5] it was 3.24 µM; in assay [6], 51.3 µM. For the same compound, the GI50 in assay [7] is 2.95 µM; in assay [8] it was 2.19 µM; in assay [9], 5.5 µM; in assay [10], 3.47 µM; in assay [11], 20 µM; in [12], 14.8 µM.

Turning to `COc1ccc(-c2cc(=O)c3cccnc3[nH]2)cc1` [Compound 51], the concentration for 50% growth inhibition (GI50) in assay [1] is 53.7 µM; in assay [2], 26.3 µM; in [3], 38 µM; in assay [4] it was 17.8 µM; in assay [5] it was 20.9 µM; in [6], 56.2 µM. Further, the GI50 in [7] was 20 µM; in [8], 34.7 µM; in assay [9], 31.6 µM; in assay [10] it was 12.9 µM; in assay [11] it was 30.2 µM; in assay [12] it was 64.6 µM.

As for `COc1ccc(-c2cc(=O)c3c(C)ccnc3[nH]2)cc1` [Compound 52], the GI50 was 6.31 µM in assay [1]; 6.17 µM in assay [2]; 12.9 µM in assay [3]; 6.46 µM in assay [4]; 2.09 µM in [5]; 25.1 µM in assay [6]. In addition, the GI50 in assay [7] was 2.4 µM; in [8], 3.89 µM; in [9], 18.2 µM; in assay [10] it was 4.37 µM; in [11], 13.8 µM; in assay [12] it was 19.5 µM.

As to `COc1ccc(C2=Nc3ncc(C)cc3C(=O)C2)cc1` [Compound 53, 2-(4'-Methoxyphenyl)-6-methyl-1,8-naphthyridin-4-one], the GI50 in assay [1] is 4.17 µM; in assay [2] it was 4.07 µM; in [3], 6.17 µM; in assay [4] it was 4.17 µM; in [5] it was 1.7 µM; in assay [6], 5.13 µM. Moreover, the GI50 in assay [7] was 1.82 µM; in assay [8] it was 3.72 µM; in assay [9], 5.37 µM; in assay [10], 2.29 µM; in [11], 2.95 µM; in [12], 5.25 µM. Besides, the IC50 in the assay on tubulin (setting [13]) is 7.7 ± 0.7 µM; with tubulin (setting [14]), 1.5 to 9.8 µM.

For `COc1ccc(C2=Nc3nc(C)ccc3C(=O)C2)cc1` [Compound 54, 2-(4'-Methoxyphenyl)-7-methyl-1,8-naphthyridin-4-one], the GI50 in assay [1] was greater than 100 µM; in assay [2], greater than 100 µM; in assay [3] it was 91.2 µM; in assay [4] it was greater than 100 µM; in assay [5], 55 µM; in assay [6], greater than 100 µM. For the same compound, the GI50 in assay [7] was 42.7 µM; in assay [8] it was 47.9 µM; in assay [9], greater than 100 µM; in [10] it was greater than 100 µM; in assay [11] it was greater than 100 µM; in assay [12], 89.1 µM. Moreover, in the assay with tubulin (setting [13]), the IC50 was greater than 40 µM.

In the case of `COc1ccc(C2=Nc3nc(C)cc(C)c3C(=O)C2)cc1` [Compound 55, 2-(4'-Methoxyphenyl)-5,7-dimethyl-1,8-naphthyridin-4-one], the GI50 in assay [1] is 91.2 µM; in [2], 40.7 µM; in assay [3], 33.1 µM; in [4], 36.3 µM; in assay [5], 33.1 µM; in [6], 58.9 µM. Besides, the GI50 in [7] is 28.8 µM; in assay [8], 17.8 µM; in assay [9] it was 24 µM; in assay [10], 15.8 µM; in assay [11], 32.4 µM; in assay [12] it was 42.7 µM. In addition, the IC50 with tubulin (setting [13]) is greater than 40 µM.

As to `O=C1CC(c2ccc(F)cc2)=Nc2ncccc21` [Compound 56, 2-(4'-Fluorophenyl)-1,8-naphthyridin-4-one], the GI50 in assay [1] was 47.9 µM; in [2], 34.7 µM; in assay [3], 45.7 µM; in assay [4] it was 42.7 µM; in [5] it was 14.1 µM; in assay [6], 44.7 µM. Besides, the concentration for 50% growth inhibition (GI50) in assay [7] is 12 µM; in assay [8] it was 30.2 µM; in assay [9] it was 45.7 µM; in assay [10], 12.9 µM; in assay [11], 45.7 µM; in assay [12] it was 50.1 µM. The IC50 with tubulin (setting [13]) was greater than 40 µM.

For the compound `Cc1ccnc2c1C(=O)CC(c1ccc(F)cc1)=N2` [Compound 57, 2-(4'-Fluorophenyl)-5-methyl-1,8-naphthyridin-4-one], the GI50 in assay [1] was 36.3 µM; in assay [2], 32.4 µM; in assay [3] it was 38 µM; in [4], 16.2 µM; in [5], 3.55 µM; in assay [6], 33.9 µM. Moreover, the GI50 in assay [7] was 2.88 µM; in assay [8], 16.2 µM; in assay [9], 51.3 µM; in [10], 4.79 µM; in assay [11], 56.2 µM; in assay [12] it was 79.4 µM. The IC50 with tubulin (setting [13]) is 18 ± 2 µM; in the assay on tubulin (setting [14]), 11 to 32 µM.

`Cc1cnc2c(c1)C(=O)CC(c1ccc(F)cc1)=N2` [Compound 58, 2-(4'-Fluorophenyl)-6-methyl-1,8-naphthyridin-4-one]: the GI50 in assay [1] is 25.1 µM; in assay [2], 33.9 µM; in assay [3], 26.3 µM; in assay [4], 24 µM; in [5], 3.02 µM; in assay [6] it was 32.4 µM. The GI50 is 2.63 µM in assay [7]; 21.9 µM in [8]; 25.7 µM in [9]; 2.4 µM in assay [10]; 22.4 µM in assay [11]; 29.5 µM in assay [12]. For the same compound, the IC50 was 20 ± 2 µM in the assay on tubulin (setting [13]) and 11 to 32 µM with tubulin (setting [14]).

As for `Cc1ccc2c(n1)N=C(c1ccc(F)cc1)CC2=O` [Compound 59, 2-(4'-Fluorophenyl)-7-methyl-1,8-naphthyridin-4-one], the 50% growth inhibitory concentration (GI50) in assay [1] is 37.2 µM; in assay [2] it was 33.9 µM; in [3], 32.4 µM; in assay [4] it was 33.9 µM; in [5] it was 11.7 µM; in assay [6], 41.7 µM. The GI50 in assay [7] was 5.89 µM; in assay [8] it was 31.6 µM; in [9], 20.9 µM; in assay [10] it was 14.1 µM; in assay [11], 32.4 µM; in assay [12] it was 37.2 µM. The IC50 in the assay on tubulin (setting [13]) and in the assay on tubulin (setting [14]) was greater than 40 µM throughout.

For the compound `Cc1cc(C)c2c(n1)N=C(c1ccc(F)cc1)CC2=O` [Compound 60, 2-(4'-Fluorophenyl)-5,7-dimethyl-1,8-naphthyridin-4-one], the GI50 is 95.5 µM in assay [1]; 51.3 µM in assay [2]; 40.7 µM in [3]; 50.1 µM in assay [4]; 25.1 µM in [5]; 79.4 µM in assay [6]. For the same compound, the GI50 is 18.6 µM in assay [7]; 26.3 µM in assay [8]; 30.2 µM in assay [9]; 15.5 µM in assay [10]; 43.7 µM in [11]; 50.1 µM in assay [12]. In addition, the IC50 in the assay with tubulin (setting [13]) and in the assay with tubulin (setting [14]) was greater than 40 µM in each case.

For `Cc1ccc(C2=Nc3nccc(C)c3C(=O)C2)cc1` [Compound 67, 2-(4'-Methylphenyl)-5-methyl-1,8-naphthyridin-4-one], the IC50 in the assay with tubulin (setting [13]) amounted to 2.9 ± 0.7 µM.

Turning to `Cc1ccc(C2=Nc3ncc(C)cc3C(=O)C2)cc1` [Compound 68, 2-(4'-Methylphenyl)-6-methyl-1,8-naphthyridin-4-one], in the assay on tubulin (setting [13]), the IC50 came out at 2.4 ± 0.8 µM.

With `Cc1ccc(C2=Nc3nc(C)ccc3C(=O)C2)cc1` [Compound 69, 2-(4'-Methylphenyl)-7-methyl-1,8-naphthyridin-4-one], in the assay on tubulin (setting [13]), the IC50 was 4.9 ± 0.2 µM.

With `Cc1ccc(C2=Nc3nc(C)cc(C)c3C(=O)C2)cc1` [Compound 70, 2-(4'-Methylphenyl)-5,7-dimethyl-1,8-naphthyridin-4-one], the IC50 with tubulin (setting [13]) stood at 9.8 ± 2 µM.

Values taken from patent US6229016A, “Method for treating tumors using 2-aryl-naphthyridin-4-ones” (priority 2000, dated 2001).
